Data from patent US12447151B2, “Alkyne derivative, preparation method for same, and uses thereof” (ZHEJIANG HISUN PHARMACEUTICAL CO., LTD., priority 2019, dated 2025).

Legend:
recombinant human PI3Kγ = recombinant human PI3Kγ (Homo sapiens (Human), UniProt P48736); assay: Inhibitory activity on PI3K kinase (ADP-Glo Kinase Assay); type: biochemical
Description: The following method is used to determine the degree of inhibition of recombinant human PI3Kα, PI3Kβ, PI3Kγ and PI3Kδ kinase activity by the compounds of the present invention under in vitro conditions. Promega's ADP-Glo Kinase Assay Kit (Cat. No. V9102) was used in this method. The above kit was a luminescence kinase detection kit, which was used to detect the ADP content produced by the kinase reaction. The ADP content was positively correlated with the kinase activity. By measuring the ADP content, the inhibition of the compound on the activity of PI3Kα, PI3Kβ, PI3Kγ and PI3Kδ kinases was reflected. For detailed experimental operations, please refer to the kit instructions. Recombinant human PI3Kα, PI3Kγ, and PI3Kδ were purchased from Invitrogen, and PI3Kβ was purchased from Promega (category numbers were PI3Kα: PV4788; PI3Kβ: V1751; PI3Kγ: PV4786 and PI3Kδ: PV6451 separately).

PI3Kα(C2C12) = PI3Kα(C2C12) (Mus musculus (Mouse), UniProt P42337); assay: Cell activity of PI3K subtypes, AlphaLISA p-AKT (pS473); type: cell-based; conditions: C2C12 cells, IGF-1 stimulated
Description: The following method was used to determine the degree of inhibition of the compounds of the present invention on activity of PI3Kα, PI3Kβ, PI3Kγ, and PI3Kδ kinase in different cells. The AlphaLISA SureFire Ultra p-AKT1/2/3 (pS473) kit (#ALSU-PAKT-B500) of PE company was used in the method. The above kit used AlphaLISA technology, using donor and acceptor beads to detect the interaction of biomolecules, to detect the content of p-AKT (pS473), reflecting the intensity of inhibition of the compounds on PI3Kα, PI3Kβ, PI3Kγ and PI3Kδ at the cell level. For detailed experimental operations, please refer to the kit instructions.
The experimental procedure was briefly described as follows: the experiment was carried out in a 384-well plate using a Multidrop dispenser (Thermo, #836-4049), using different cells for different PI3K subtypes (PI3Kα: C2C12 cells (myoblasts); PI3Kβ: PC-3 cells (human prostate cancer cells); PI3Kγ: Raw264.7 cells (monocyte macrophages); PI3Kδ: Raji cells (lymphoma cells)). 6 μL of the corresponding cells were transferred to the wells of a 384-well plate. After centrifugation 500 RPM for 30 seconds, the plate was placed in a 37° C., 5% CO2 incubator for 2 hours. The test compound was first dissolved in DMSO to prepare a 10 mM stock solution, which was diluted 4-fold with DMSO. 30 nL was transferred by Echo (Labcyte, #550) to each well (final concentration is 10000 nM-0.2 nM), and incubated for 30 minutes. Then for C2C12 cells used for PI3Kα subtype, 2 uL IGF-1 (R&D, #291-G1-200, final concentration 1200 ng/mL) was added and incubated for 20 minutes. For PC-3 cells used for PI3Kβ subtype, 2 μL LPA (Sigma, #L7260, final concentration 15 ug/mL) was added and incubated for 20 minutes. For Raw264.7 cells used for PI3Kγ subtype, 2 uL C5a (Biotang, #RPR9899, final concentration 80 ng/mL) was added and incubated for 5 minutes. For Raji cells used for PI3Kδ subtype, 2 μL IgM (Jackson ImmunoResearch, #109-006-129, final concentration 3 ug/mL) was added and incubated for 10 minutes. After the incubation, AlphaLISA SureFire Ultra p-AKT1/2/3(pS473) kit was used to determine the AlphaLISA signal. The kit determination method was briefly described as follows: 20 μL Lysis Buffer was used to lyse the cells for 10 minutes. Then 5 uL acceptor mix and 5 uL donor mix were added to a 384-well plate. The plate was incubated with shaking at room temperature for 2 hours. Envision (PE, #2104) was used to read AlphaLISA signal. By comparing with the signal intensity ratio of the control group (0.5% DMSO), the percentage inhibition rate of the compound at each concentration was calculated. The GraphPad Prism 5 software was used to perform nonlinear regression analysis of the compound concentration logarithmic value vs. the inhibition rate to obtain the IC50 values of the compounds, shown in Table 3.

recombinant human PI3Kα = recombinant human PI3Kα (Homo sapiens (Human), UniProt P42336); assay: Inhibitory activity on PI3K kinase (ADP-Glo Kinase Assay)
recombinant human PI3Kα, sequence (P42336 whole entry): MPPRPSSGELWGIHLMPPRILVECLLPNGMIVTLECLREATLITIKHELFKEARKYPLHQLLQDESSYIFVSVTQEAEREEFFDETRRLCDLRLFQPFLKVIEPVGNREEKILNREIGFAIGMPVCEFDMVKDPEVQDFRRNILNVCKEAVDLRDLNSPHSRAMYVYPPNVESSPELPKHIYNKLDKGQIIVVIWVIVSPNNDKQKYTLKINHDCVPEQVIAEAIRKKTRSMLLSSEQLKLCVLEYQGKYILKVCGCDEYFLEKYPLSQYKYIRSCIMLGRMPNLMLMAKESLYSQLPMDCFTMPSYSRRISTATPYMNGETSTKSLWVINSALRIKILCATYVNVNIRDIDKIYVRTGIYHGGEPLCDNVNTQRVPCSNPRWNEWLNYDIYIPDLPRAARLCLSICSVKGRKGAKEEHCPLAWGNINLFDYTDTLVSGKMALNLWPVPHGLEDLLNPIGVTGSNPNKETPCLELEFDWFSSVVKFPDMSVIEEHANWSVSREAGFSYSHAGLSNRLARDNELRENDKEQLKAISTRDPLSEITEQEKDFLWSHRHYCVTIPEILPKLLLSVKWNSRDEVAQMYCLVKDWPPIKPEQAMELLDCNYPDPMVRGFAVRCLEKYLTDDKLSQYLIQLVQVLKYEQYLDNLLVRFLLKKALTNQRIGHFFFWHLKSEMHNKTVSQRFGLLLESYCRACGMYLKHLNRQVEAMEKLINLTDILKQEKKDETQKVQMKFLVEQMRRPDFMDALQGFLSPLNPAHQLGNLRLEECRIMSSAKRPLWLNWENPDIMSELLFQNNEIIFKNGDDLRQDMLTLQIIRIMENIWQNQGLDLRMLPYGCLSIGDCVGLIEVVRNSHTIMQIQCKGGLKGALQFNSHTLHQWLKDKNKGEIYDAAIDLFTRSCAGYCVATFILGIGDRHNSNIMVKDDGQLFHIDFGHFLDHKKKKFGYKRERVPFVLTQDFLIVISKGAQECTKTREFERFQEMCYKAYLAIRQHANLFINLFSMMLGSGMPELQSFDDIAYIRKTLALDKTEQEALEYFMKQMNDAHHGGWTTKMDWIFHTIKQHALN
recombinant human PI3Kα, sequence (P27986 whole entry partner): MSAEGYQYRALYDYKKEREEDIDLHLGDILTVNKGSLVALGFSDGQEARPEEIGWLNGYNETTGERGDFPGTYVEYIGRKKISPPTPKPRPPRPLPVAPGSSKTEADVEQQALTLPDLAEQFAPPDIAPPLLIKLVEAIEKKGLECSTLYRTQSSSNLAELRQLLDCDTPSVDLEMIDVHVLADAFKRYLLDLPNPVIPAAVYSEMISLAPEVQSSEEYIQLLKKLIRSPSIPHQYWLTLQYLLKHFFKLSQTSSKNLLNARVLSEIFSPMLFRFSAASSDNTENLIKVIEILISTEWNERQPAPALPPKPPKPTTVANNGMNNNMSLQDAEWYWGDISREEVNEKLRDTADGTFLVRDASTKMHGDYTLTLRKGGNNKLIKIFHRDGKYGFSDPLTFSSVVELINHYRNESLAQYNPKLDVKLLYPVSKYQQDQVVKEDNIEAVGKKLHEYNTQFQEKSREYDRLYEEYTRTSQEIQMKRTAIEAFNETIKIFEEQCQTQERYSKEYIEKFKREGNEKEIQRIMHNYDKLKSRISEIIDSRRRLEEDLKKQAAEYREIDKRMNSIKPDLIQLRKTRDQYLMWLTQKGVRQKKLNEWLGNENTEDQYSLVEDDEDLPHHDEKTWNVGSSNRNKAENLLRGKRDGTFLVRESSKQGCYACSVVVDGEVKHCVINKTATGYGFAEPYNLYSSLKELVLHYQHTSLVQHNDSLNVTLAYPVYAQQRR
Description: The following method is used to determine the degree of inhibition of recombinant human PI3Kα, PI3Kβ, PI3Kγ and PI3Kδ kinase activity by the compounds of the present invention under in vitro conditions. Promega's ADP-Glo Kinase Assay Kit (Cat. No. V9102) was used in this method. The above kit was a luminescence kinase detection kit, which was used to detect the ADP content produced by the kinase reaction. The ADP content was positively correlated with the kinase activity. By measuring the ADP content, the inhibition of the compound on the activity of PI3Kα, PI3Kβ, PI3Kγ and PI3Kδ kinases was reflected. […] Recombinant human PI3Kα, PI3Kγ, and PI3Kδ were purchased from Invitrogen, and PI3Kβ was purchased from Promega (category numbers were PI3Kα: PV4788; PI3Kβ: V1751; PI3Kγ: PV4786 and PI3Kδ: PV6451 separately).

recombinant human PI3Kγ, sequence (P48736 whole entry): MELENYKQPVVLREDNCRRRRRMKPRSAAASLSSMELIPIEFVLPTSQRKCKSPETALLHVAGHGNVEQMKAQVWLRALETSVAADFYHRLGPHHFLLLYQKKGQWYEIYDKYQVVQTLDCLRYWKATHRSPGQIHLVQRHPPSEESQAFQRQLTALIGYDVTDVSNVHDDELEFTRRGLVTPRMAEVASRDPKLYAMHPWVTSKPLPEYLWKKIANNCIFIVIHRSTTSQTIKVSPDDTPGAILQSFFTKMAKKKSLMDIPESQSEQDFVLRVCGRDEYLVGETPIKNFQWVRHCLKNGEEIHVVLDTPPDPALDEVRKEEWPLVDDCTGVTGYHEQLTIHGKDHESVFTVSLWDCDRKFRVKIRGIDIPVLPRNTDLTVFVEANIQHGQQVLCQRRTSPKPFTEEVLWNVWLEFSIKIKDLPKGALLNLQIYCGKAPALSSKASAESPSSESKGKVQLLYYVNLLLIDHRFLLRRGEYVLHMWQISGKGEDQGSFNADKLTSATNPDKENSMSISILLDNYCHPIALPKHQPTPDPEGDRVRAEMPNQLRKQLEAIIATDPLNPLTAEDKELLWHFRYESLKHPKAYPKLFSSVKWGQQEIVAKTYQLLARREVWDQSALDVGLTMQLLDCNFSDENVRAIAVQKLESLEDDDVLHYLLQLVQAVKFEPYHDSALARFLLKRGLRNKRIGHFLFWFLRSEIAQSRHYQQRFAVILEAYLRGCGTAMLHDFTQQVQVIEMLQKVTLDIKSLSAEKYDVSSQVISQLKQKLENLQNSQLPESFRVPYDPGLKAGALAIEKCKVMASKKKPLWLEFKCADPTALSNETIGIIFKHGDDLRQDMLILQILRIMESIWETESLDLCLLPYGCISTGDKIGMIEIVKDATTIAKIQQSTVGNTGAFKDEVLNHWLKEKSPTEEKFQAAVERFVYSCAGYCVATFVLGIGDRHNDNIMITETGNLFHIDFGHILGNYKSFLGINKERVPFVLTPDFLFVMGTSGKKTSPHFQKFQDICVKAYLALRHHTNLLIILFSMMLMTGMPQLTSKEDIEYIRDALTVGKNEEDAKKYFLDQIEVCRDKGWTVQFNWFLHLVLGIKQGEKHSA
PI3Kα(C2C12), sequence (P42337 whole entry): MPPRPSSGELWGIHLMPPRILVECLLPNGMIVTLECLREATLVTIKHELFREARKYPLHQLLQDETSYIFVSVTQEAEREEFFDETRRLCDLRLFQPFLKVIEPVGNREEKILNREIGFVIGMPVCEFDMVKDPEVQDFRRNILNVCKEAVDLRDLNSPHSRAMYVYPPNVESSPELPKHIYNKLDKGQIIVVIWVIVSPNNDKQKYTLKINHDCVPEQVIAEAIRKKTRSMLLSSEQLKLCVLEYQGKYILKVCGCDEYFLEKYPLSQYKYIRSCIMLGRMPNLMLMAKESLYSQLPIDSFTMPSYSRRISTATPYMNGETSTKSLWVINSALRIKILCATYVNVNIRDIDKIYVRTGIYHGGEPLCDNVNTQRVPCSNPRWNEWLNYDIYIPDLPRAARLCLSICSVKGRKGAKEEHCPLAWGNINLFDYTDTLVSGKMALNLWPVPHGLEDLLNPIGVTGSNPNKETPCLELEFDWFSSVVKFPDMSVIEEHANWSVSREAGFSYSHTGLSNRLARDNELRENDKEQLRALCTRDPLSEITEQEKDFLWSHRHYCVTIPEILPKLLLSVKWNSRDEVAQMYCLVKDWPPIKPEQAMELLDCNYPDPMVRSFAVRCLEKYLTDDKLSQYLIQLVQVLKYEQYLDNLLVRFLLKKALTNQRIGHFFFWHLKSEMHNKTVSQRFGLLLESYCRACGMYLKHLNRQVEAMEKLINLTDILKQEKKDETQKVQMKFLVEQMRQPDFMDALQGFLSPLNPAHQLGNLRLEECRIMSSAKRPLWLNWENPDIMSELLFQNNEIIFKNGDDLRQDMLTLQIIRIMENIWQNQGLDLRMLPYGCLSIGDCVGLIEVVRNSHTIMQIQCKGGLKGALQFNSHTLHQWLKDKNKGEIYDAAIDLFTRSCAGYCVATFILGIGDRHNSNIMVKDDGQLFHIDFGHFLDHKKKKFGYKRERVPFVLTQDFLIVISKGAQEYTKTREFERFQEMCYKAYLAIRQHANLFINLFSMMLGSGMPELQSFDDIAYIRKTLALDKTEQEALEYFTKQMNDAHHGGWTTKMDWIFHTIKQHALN
PI3Kα(C2C12), sequence (P26450 whole entry partner): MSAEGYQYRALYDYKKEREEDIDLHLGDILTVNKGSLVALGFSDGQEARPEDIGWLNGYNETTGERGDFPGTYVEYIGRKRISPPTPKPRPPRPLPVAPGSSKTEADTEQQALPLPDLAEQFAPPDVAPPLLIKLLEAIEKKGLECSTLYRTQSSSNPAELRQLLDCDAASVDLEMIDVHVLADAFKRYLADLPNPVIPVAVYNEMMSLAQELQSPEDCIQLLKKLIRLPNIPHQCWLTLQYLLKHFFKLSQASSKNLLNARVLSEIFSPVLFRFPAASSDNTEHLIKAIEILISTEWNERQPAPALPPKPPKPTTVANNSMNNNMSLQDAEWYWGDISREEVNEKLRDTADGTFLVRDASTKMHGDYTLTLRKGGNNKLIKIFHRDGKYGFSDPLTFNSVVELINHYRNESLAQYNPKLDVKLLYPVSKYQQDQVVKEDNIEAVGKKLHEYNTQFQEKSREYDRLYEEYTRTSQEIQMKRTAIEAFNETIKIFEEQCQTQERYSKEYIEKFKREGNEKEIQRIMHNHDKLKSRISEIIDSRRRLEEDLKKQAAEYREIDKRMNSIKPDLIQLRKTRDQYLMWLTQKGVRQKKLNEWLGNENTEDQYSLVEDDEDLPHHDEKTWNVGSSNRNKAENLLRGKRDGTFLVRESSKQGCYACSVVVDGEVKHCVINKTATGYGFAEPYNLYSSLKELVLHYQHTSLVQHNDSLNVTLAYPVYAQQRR

For `C[C@H](NC(=O)c1c(N)nn2cccnc12)c1nc2cccc(C#Cc3cnn(C4CC4)c3)c2c(=O)n1-c1ccccc1` [Example 2, (S)-2-amino-N-(1-(5-((1-cyclopropyl-1H-pyrazol-4-yl)ethynyl)-4-oxo-3-phenyl-3,4-dihydroquinazolin-2-yl)ethyl)pyrazolo[1,5-a]pyrimidine-3-carboxamide], the IC50 (recombinant human PI3Kγ; ADP-Glo, ATP 10 μM) was 0.58 nM, the “IC50 (PI3Kα)/IC50(PI3Kγ)” value (recombinant human PI3Kγ; kinase selectivity for PI3Kγ over PI3Kα) was 370 and the “IC50 (PI3Kβ)/IC50(PI3Kγ)” value (recombinant human PI3Kγ; kinase selectivity for PI3Kγ over PI3Kβ) was 804. For the same compound, the “IC50 (PI3Kδ)/IC50(PI3Kγ)” value (recombinant human PI3Kγ; kinase selectivity for PI3Kγ over PI3Kδ) was 330, the IC50 (PI3Kα(C2C12)) was 4.77 µM and the IC50 (recombinant human PI3Kα) was 215 nM.
